In PubChem BioAssay AID328 (DTP/NCI, 2004) one finds T/C data, which are given here for 18 compounds.

Several values for one entry are separate records, joined by “and”; a condition that tells them apart may be missing. Equal values may be shown once. Toxic doses and inconclusive results are not listed.

This test has as its system BDF1 mice, P388 leukemia ip, median survival T/C. Kind of test: NCI In Vivo Anticancer Drug Screen. Data for tumor model P388 Leukemia (intraperitoneal) in B6D2F1 (BDF1) mice. Particulars: endpoint: median survival time, higher = longer survival. The essentials:
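T/C = treated-group survival ÷ vehicle-control survival; tumour transplanted into mice before dosing.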

The mark [1] stands for this setting: dose: 50.0 mg/kg/injection, schedule: Q04DX003 (ip), vehicle: saline with Tween-80.
[2] abbreviates: dose: 100.0 mg/kg/injection, schedule: Q04DX003 (ip), vehicle: saline with Tween-80.
The mark [3] stands for this setting: dose: 200.0 mg/kg/injection, schedule: Q04DX003 (ip), vehicle: saline with Tween-80.
Where [4] appears, read: dose: 400.0 mg/kg/injection, schedule: Q04DX003 (ip), vehicle: saline with Tween-80.
[5] abbreviates: dose: 25.0 mg/kg/injection, schedule: Q01DX009 (ip), vehicle: water.
[6] abbreviates: dose: 45.0 mg/kg/injection, schedule: Q04DX003 (ip), vehicle: saline with Tween-80.
[7] abbreviates: dose: 150.0 mg/kg/injection, schedule: Q04DX003 (ip), vehicle: saline with Tween-80.
Setting [8] is: dose: 50.0 mg/kg/injection, schedule: Q01DX009 (ip), vehicle: saline.
[9] abbreviates: dose: 100.0 mg/kg/injection, schedule: Q01DX009 (ip), vehicle: saline.
The mark [10] stands for this setting: dose: 200.0 mg/kg/injection, schedule: Q01DX009 (ip), vehicle: saline.
The mark [11] stands for this setting: dose: 100.0 mg/kg/injection, schedule: Q04DX003 (ip), vehicle: Klucel (hydroxypropylcellulose) (HPC).
Setting [12] is: dose: 200.0 mg/kg/injection, schedule: Q04DX003 (ip), vehicle: Klucel (hydroxypropylcellulose) (HPC).
[13] abbreviates: dose: 400.0 mg/kg/injection, schedule: Q04DX003 (ip), vehicle: Klucel (hydroxypropylcellulose) (HPC).
Setting [14] is: dose: 25.0 mg/kg/injection, schedule: Q01DX009 (ip), vehicle: saline.
Setting [15] is: dose: 50.0 mg/kg/injection, schedule: Q01DX009 (ip), vehicle: Klucel (hydroxypropylcellulose) (HPC).
Where [16] appears, read: dose: 100.0 mg/kg/injection, schedule: Q01DX009 (ip), vehicle: Klucel (hydroxypropylcellulose) (HPC).
The mark [17] stands for this setting: dose: 200.0 mg/kg/injection, schedule: Q01DX009 (ip), vehicle: Klucel (hydroxypropylcellulose) (HPC).

As to `OCCN(CCO)c1cc(/C=C/c2cccc3ccccc23)nc2ccccc12`, the T/C by setting is: (dose: 50.0 mg/kg/injection, schedule: Q01DX009 (ip), vehicle: saline + alcohol) 100 % of control; (dose: 100.0 mg/kg/injection, schedule: Q01DX009 (ip), vehicle: saline + alcohol) 100 % of control; (dose: 200.0 mg/kg/injection, schedule: Q01DX009 (ip), vehicle: saline + alcohol) 103 % of control.
As to `C=C1C(=O)OC2C1C(OC(=O)/C(C)=C/C)CC(O)(CCl)C1C(OC(C)=O)C=C(C)C21O` (configuration not stated), the T/C by setting is: (dose: 5.0 mg/kg/injection, schedule: Q01DX010 (ip), vehicle: carboxymethylcellulose (CMC)) 100 % of control; (dose: 10.0 mg/kg/injection, schedule: Q01DX010 (ip), vehicle: carboxymethylcellulose (CMC)) 100 % of control; (dose: 20.0 mg/kg/injection, schedule: Q01DX010 (ip), vehicle: carboxymethylcellulose (CMC)) 100 % of control; (dose: 25.0 mg/kg/injection, schedule: Q01DX010 (ip), vehicle: saline) 116 % of control; (dose: 50.0 mg/kg/injection, schedule: Q01DX010 (ip), vehicle: saline) 100 % of control; (dose: 100.0 mg/kg/injection, schedule: Q01DX010 (ip), vehicle: saline) 155 % of control.
`CCOC(=O)c1ccc(N=CNc2ccc(C(=O)OCC)cc2)cc1`: the T/C runs as follows: (dose: 12.5 mg/kg/injection, schedule: Q01DX009 (ip), vehicle: saline with Tween-80) 100 % of control; (dose: 25.0 mg/kg/injection, schedule: Q01DX009 (ip), vehicle: saline with Tween-80) 92 % of control; (dose: 25.0 mg/kg/injection, schedule: Q04DX003 (ip), vehicle: saline with Tween-80) 91 % of control; under setting [1], 87 % of control.
As to `O=C(/C=C/c1ccc(Br)cc1)c1ccc(Cl)cc1`, the T/C is 100 % of control (dose: 100.0 mg/kg/injection, schedule: Q01DX009 (ip), vehicle: saline with Tween-80); 100 % of control under setting [2]; 110 % of control (dose: 200.0 mg/kg/injection, schedule: Q01DX009 (ip), vehicle: saline with Tween-80); 100 % of control under setting [3]; 100 % of control (dose: 400.0 mg/kg/injection, schedule: Q01DX009 (ip), vehicle: saline with Tween-80); 90 % of control under setting [4].
For the compound `NC(=S)N/N=C/c1nccc2ccccc12`, the T/C is, setting by setting: (dose: 18.8 mg/kg/injection, schedule: Q01DX009 (ip), vehicle: saline with Tween-80) 158 % of control; (dose: 37.5 mg/kg/injection, schedule: Q01DX009 (ip), vehicle: saline with Tween-80) 185 % of control; (dose: 75.0 mg/kg/injection, schedule: Q01DX009 (ip), vehicle: saline with Tween-80) 235 % of control; (dose: 300.0 mg/kg/injection, schedule: Q01DX009 (ip), vehicle: saline with Tween-80) 91 % of control.
With `C[n+]1c(-c2cc(N)cc(C(F)(F)F)c2)c2cc(N)ccc2c2ccc(N)cc21`, the T/C by setting is: (dose: 6.25 mg/kg/injection, schedule: Q01DX009 (ip), vehicle: water) 150 % of control; (dose: 12.5 mg/kg/injection, schedule: Q01DX009 (ip), vehicle: water) 181 % of control; under setting [5], 95 % of control.
For the compound `CCOC(=O)C(=Cc1c[nH]c2ccccc12)C(=O)OCC`, the T/C runs as follows: under setting [6], 109 % of control; (dose: 65.0 mg/kg/injection, schedule: Q04DX003 (ip), vehicle: saline with Tween-80) 113 % of control; under setting [2], 100 % of control and 105 % of control; under setting [7], 109 % of control; under setting [3], 100 % of control and 118 % of control; under setting [4], 90 % of control and 109 % of control.
For the compound `Cc1ccc(S(=O)(=O)NCCCCCC(=O)OCc2ccccc2)cc1`, the T/C runs as follows: under setting [8], 99 % of control; under setting [9], 108 % of control; under setting [10], 100 % of control.
Consider `CCN(c1ccc2c(c1)C(=O)c1ccccc1-2)S(=O)(=O)c1ccc(C)cc1`, for which the T/C reads like this: under setting [11], 100 % of control; under setting [12], 104 % of control; under setting [13], 95 % of control.
Turning to `CCOC(=O)C(NC(C)=O)(C(=O)OCC)C(C)C(O)c1ccc(OC)c(OC)c1O` (configuration not stated), the T/C was 100 % of control under setting [14]; 100 % of control under setting [8]; 109 % of control under setting [9]; 122 % of control under setting [10]; 100 % of control (dose: 400.0 mg/kg/injection, schedule: Q01DX009 (ip), vehicle: saline).
For `CNC(=S)N(N)c1ccccc1`, the T/C under setting [15] is 108 % of control; the T/C under setting [16] was 94 % of control; the T/C under setting [11] was 90 % of control; the T/C under setting [17] is 95 % of control; the T/C under setting [12] is 95 % of control.
In the case of `C[N+](C)(C)CCCC[N+](C)(C)C`, the T/C is 93 % of control under setting [14]; 91 % of control under setting [8]; 103 % of control (dose: 50.0 mg/kg/injection, schedule: Q04DX003 (ip), vehicle: saline); 87 % of control under setting [9]; 103 % of control (dose: 100.0 mg/kg/injection, schedule: Q04DX003 (ip), vehicle: saline); 89 % of control and 93 % of control under setting [10]. Besides, the T/C was 100 % of control (dose: 200.0 mg/kg/injection, schedule: Q04DX003 (ip), vehicle: saline); 93 % of control and 96 % of control (dose: 300.0 mg/kg/injection, schedule: Q01DX009 (ip), vehicle: saline).
For `O=C(Nc1ccc(C(=O)O)cc1)Oc1ccc(N(CCCl)CCCl)cc1`, the T/C runs as follows: (dose: 12.0 mg/kg/injection, schedule: Q04DX003 (ip), vehicle: saline) 163 % of control; (dose: 19.0 mg/kg/injection, schedule: Q04DX003 (ip), vehicle: saline) 154 % of control; (dose: 29.0 mg/kg/injection, schedule: Q04DX003 (ip), vehicle: saline with Tween-80) 200 % of control; under setting [6], 235 % of control; (dose: 66.0 mg/kg/injection, schedule: Q04DX003 (ip), vehicle: saline with Tween-80) 163 % of control; under setting [2], 245 % of control. Besides, under setting [7], the T/C was 190 % of control.
Take `Cc1nc2[nH][nH]c(=O)c2nc1C`: the T/C is 100 % of control under setting [16]; 104 % of control under setting [11]; 110 % of control under setting [17]; 92 % of control under setting [12]; 100 % of control under setting [13].
`C#CC(C)(C)OCC(CCl)OC(N)=O` (configuration not stated): the T/C runs as follows: under setting [1], 105 % of control; under setting [2], 110 % of control; under setting [3], 100 % of control; under setting [4], 115 % of control.
`NC(CCCC(=O)O)P(=O)(O)O` (configuration not stated): the T/C was 112 % of control under setting [15], 110 % of control under setting [16] and 113 % of control under setting [17].
Regarding `C/C(CC(=O)O)=C(\C)C(=O)O`, the T/C was 100 % of control under setting [5]; 100 % of control (dose: 50.0 mg/kg/injection, schedule: Q01DX009 (ip), vehicle: water); 96 % of control (dose: 100.0 mg/kg/injection, schedule: Q01DX001 (ip), vehicle: saline); 97 % of control and 103 % of control (dose: 100.0 mg/kg/injection, schedule: Q01DX009 (ip), vehicle: water); 108 % of control (dose: 100.0 mg/kg/injection, schedule: Q04DX003 (ip), vehicle: water); 100 % of control (dose: 200.0 mg/kg/injection, schedule: Q01DX001 (ip), vehicle: saline). Besides, the T/C is, setting by setting: (dose: 200.0 mg/kg/injection, schedule: Q01DX009 (ip), vehicle: water) 112 % of control; (dose: 400.0 mg/kg/injection, schedule: Q01DX001 (ip), vehicle: saline) 100 % of control; (dose: 400.0 mg/kg/injection, schedule: Q01DX009 (ip), vehicle: water) 105 % of control.
For `C/C(CC(C)(C)c1ccccc1)=N/NC(N)=O`, the T/C by setting is: (dose: 50.0 mg/kg/injection, schedule: Q04DX003 (ip), vehicle: saline sonified) 90 % of control; (dose: 100.0 mg/kg/injection, schedule: Q04DX003 (ip), vehicle: saline sonified) 100 % of control; (dose: 200.0 mg/kg/injection, schedule: Q04DX003 (ip), vehicle: saline sonified) 95 % of control.
